For test [1], the target named is DalS (Salmonella enterica, UniProt Q8ZPA3, F117L). Kind of test: biochemical.
Test [2] addresses DalS (Salmonella enterica, UniProt Q8ZPA3, A147S). As to the kind of experiment: biochemical.
The target in test [3] is DalS (Salmonella enterica, UniProt Q8ZPA3, A147S/F117L/Y148Q). Kind of test: biochemical.
Test [4] addresses DalS (Salmonella enterica, UniProt Q8ZPA3, Y148Q). As to the kind of experiment: biochemical.
For test [5], the target named is DalS (Salmonella enterica, UniProt Q8ZPA3, A147S/A76D/D216E/F117L/T197Y/Y148Q). As to the kind of experiment: biochemical.
Test [6] addresses DalS (Salmonella enterica, UniProt Q8ZPA3). As to the kind of experiment: fluorescence. Format: binding.
Test [7] has as its target DalS (Salmonella enterica, UniProt Q8ZPA3, A147S/A76D/D216E/F117L/S60R/Y148Q). Kind of test: biochemical.

By Kd is commonly meant the concentration at which binding is half-saturated. Read a high Kd as lower affinity.

Regarding `N[C@H](CO)C(=O)O` [D-serine], the dissociation constant Kd at DalS [1] came to 3.7 ± 0.2 µM; at DalS [2] it was 1.8 ± 0.4 µM; at DalS [3], 43 ± 1 µM; at DalS [4], 101 ± 3 µM; at DalS [5] it was 4.8 ± 0.2 µM; on DalS [6] it was 12 ± 1 µM. On DalS [7], this compound yielded a Kd of 70 ± 17 µM.
With `C[C@@H](N)C(=O)O` [D-alanine], the Kd on DalS [2] stood at 0.62 ± 0.03 µM; at DalS [5], 14 ± 1 µM; on DalS [6], 5.4 ± 0.4 µM.
On to `NCC(=O)O` [glycine], for which the Kd is 40 ± 2 µM on DalS [5] and 5 ± 1 µM at DalS [6].

The values above are taken from article doi:10.1101/2020.08.18.255380v4 (biorxiv, 2021).
